# Values of other authors in US20200224165A1, “METHODS AND COMPOSITIONS FOR REJUVENATION” (priority 2016, published 2020).
# Conditions: without irradiation and chemotherapy
structure (smiles),measurement,value
c1cc(CN2CCCNCCNCCCNCC2)ccc1CN1CCCNCCNCCCNCC1 [AMD3100],effectiveness as conditioning for HSCT,not to be sufficiently effective
